# Reference: PubChem BioAssay AID248 (DTP/NCI, 2004)
# “And” between values parts separate entries of the source, which are not always exact repeats. Identical values can stand only once. Inconclusive results and toxic doses are left out.
# System: L1210 leukemia ip in BDF1 mice, survival T/C
# Experiment: NCI In Vivo Anticancer Drug Screen. Data for tumor model L1210 Leukemia (intraperitoneal) in B6D2F1 (BDF1) mice
# Details: higher = longer survival
# Procedure, shortened: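 Ratio derived from survival: compound-dosed mice over vehicle-dosed mice, all bearing a transplantable tumor.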
# [1] = endpoint: mean survival time, dose: 100.0 mg/kg/injection, schedule: Q01DX001 (ip), vehicle: saline
# [2] = endpoint: mean survival time, dose: 100.0 mg/kg/injection, schedule: Q01DX009 (ip), vehicle: saline with Tween-80
# [3] = endpoint: mean survival time, dose: 100.0 mg/kg/injection, schedule: Q04DX003 (ip), vehicle: saline with Tween-80
# [4] = endpoint: mean survival time, dose: 200.0 mg/kg/injection, schedule: Q01DX001 (ip), vehicle: saline
# [5] = endpoint: mean survival time, dose: 200.0 mg/kg/injection, schedule: Q01DX009 (ip), vehicle: saline with Tween-80
# [6] = endpoint: mean survival time, dose: 200.0 mg/kg/injection, schedule: Q04DX003 (ip), vehicle: saline with Tween-80
# [7] = endpoint: mean survival time, dose: 400.0 mg/kg/injection, schedule: Q01DX001 (ip), vehicle: saline
# [8] = endpoint: mean survival time, dose: 400.0 mg/kg/injection, schedule: Q04DX003 (ip), vehicle: saline with Tween-80
# [9] = endpoint: mean survival time, dose: 400.0 mg/kg/injection, schedule: Q04DX003 (ip), vehicle: saline
# [10] = endpoint: mean survival time, dose: 100.0 mg/kg/injection, schedule: Q01DX009 (ip), vehicle: saline
# [11] = endpoint: mean survival time, dose: 200.0 mg/kg/injection, schedule: Q01DX009 (ip), vehicle: saline
smiles,measurement,setting,value
O=C1NC(=O)C(c2ccc(O)cc2)N1 (centres undefined),T/C,"endpoint: mean survival time, dose: 50.0 mg/kg/injection, schedule: Q01DX001 (ip), vehicle: saline",105 % of control
same,T/C,[1],100 % of control
same,T/C,[2],91 % of control
same,T/C,[3],103 % of control
same,T/C,[4],97 % of control
same,T/C,[5],87 % of control
same,T/C,[6],100 % of control
same,T/C,[7],108 % of control
same,T/C,[8],94 % of control
CC(=O)OCC1OC(n2ccc(NC(=S)Nc3ccn(C4OC(COC(C)=O)C(OC(C)=O)C4OC(C)=O)c(=O)n3)nc2=O)C(OC(C)=O)C1OC(C)=O (centres undefined),T/C,[7],100 % of control
same,T/C,[9],105 % of control
same,T/C,"endpoint: mean survival time, dose: 800.0 mg/kg/injection, schedule: Q01DX001 (ip), vehicle: saline",96 % of control
same,T/C,"endpoint: mean survival time, dose: 800.0 mg/kg/injection, schedule: Q01DX009 (ip), vehicle: saline",116 % of control
same,T/C,"endpoint: mean survival time, dose: 800.0 mg/kg/injection, schedule: Q04DX003 (ip), vehicle: saline",98 % of control
same,T/C,"endpoint: mean survival time, dose: 1600.0 mg/kg/injection, schedule: Q01DX001 (ip), vehicle: saline",96 % of control
same,T/C,"endpoint: mean survival time, dose: 1600.0 mg/kg/injection, schedule: Q04DX003 (ip), vehicle: saline",100 % of control
NCS(=O)(=O)O,T/C,"endpoint: mean survival time, dose: 25.0 mg/kg/injection, schedule: Q01DX001 (ip), vehicle: saline with Tween-80",107 % of control
same,T/C,"endpoint: mean survival time, dose: 50.0 mg/kg/injection, schedule: Q01DX001 (ip), vehicle: saline with Tween-80",107 % of control
same,T/C,"endpoint: mean survival time, dose: 100.0 mg/kg/injection, schedule: Q01DX009 (ip), vehicle: Klucel (hydroxypropylcellulose) (HPC)",98 % of control
same,T/C,[10],100 % of control
same,T/C,"endpoint: mean survival time, dose: 200.0 mg/kg/injection, schedule: Q01DX009 (ip), vehicle: Klucel (hydroxypropylcellulose) (HPC)",98 % of control
same,T/C,[11],93 % of control
same,T/C,"endpoint: mean survival time, dose: 400.0 mg/kg/injection, schedule: Q01DX009 (ip), vehicle: Klucel (hydroxypropylcellulose) (HPC)",95 % of control
same,T/C,"endpoint: mean survival time, dose: 400.0 mg/kg/injection, schedule: Q01DX009 (ip), vehicle: saline",88 % of control
CNc1ccccc1CO,T/C,"endpoint: mean survival time, dose: 100.0 mg/kg/injection, schedule: Q04DX003 (ip), vehicle: other",95 % of control
same,T/C,"endpoint: mean survival time, dose: 200.0 mg/kg/injection, schedule: Q04DX003 (ip), vehicle: other",104 % of control
same,T/C,"endpoint: mean survival time, dose: 400.0 mg/kg/injection, schedule: Q04DX003 (ip), vehicle: other",107 % of control
COc1cccc2c1C(=O)c1c(O)c3c(c(O)c1C2=O)CC(O)(C(C)=O)CC3OC1CC(N)C(O)C(C)O1 (centres undefined),T/C,"endpoint: mean survival time, dose: 2.0 mg/kg/injection, schedule: Q01DX001 (ip), vehicle: saline",121 % of control
same,T/C,"endpoint: mean survival time, dose: 8.0 mg/kg/injection, schedule: Q01DX009 (ip), vehicle: saline",98 % of control
same,T/C,"endpoint: mean survival time, dose: 16.0 mg/kg/injection, schedule: Q01DX001 (ip), vehicle: saline",121 % of control
same,T/C,"endpoint: mean survival time, dose: 32.0 mg/kg/injection, schedule: Q01DX001 (ip), vehicle: saline",100 % of control
same,T/C,"endpoint: median survival time, dose: 6.0 mg/kg/injection, schedule: Q01DX005 (ip), vehicle: other",117 % of control
same,T/C,"endpoint: median survival time, dose: 6.0 mg/kg/injection, schedule: Q04DX003 (ip), vehicle: water",122 % of control
same,T/C,"endpoint: median survival time, dose: 6.6 mg/kg/injection, schedule: Q01DX005 (ip), vehicle: water",115 % of control
same,T/C,"endpoint: median survival time, dose: 10.0 mg/kg/injection, schedule: Q04DX003 (ip), vehicle: water",115 % of control
same,T/C,"endpoint: median survival time, dose: 11.0 mg/kg/injection, schedule: Q01DX005 (ip), vehicle: other",117 % of control
same,T/C,"endpoint: median survival time, dose: 11.0 mg/kg/injection, schedule: Q01DX005 (ip), vehicle: water",121 % of control
same,T/C,"endpoint: median survival time, dose: 16.0 mg/kg/injection, schedule: Q01DX005 (ip), vehicle: other",117 % of control
same,T/C,"endpoint: median survival time, dose: 17.0 mg/kg/injection, schedule: Q04DX003 (ip), vehicle: water",155 % of control
same,T/C,"endpoint: median survival time, dose: 21.0 mg/kg/injection, schedule: Q01DX005 (ip), vehicle: other",122 % of control
same,T/C,"endpoint: median survival time, dose: 31.0 mg/kg/injection, schedule: Q01DX005 (ip), vehicle: other",121 % of control
same,T/C,"endpoint: median survival time, dose: 48.0 mg/kg/injection, schedule: Q04DX003 (ip), vehicle: water",115 % of control
same,T/C,"endpoint: median survival time, dose: 80.0 mg/kg/injection, schedule: Q04DX003 (ip), vehicle: water",157 % of control
same,T/C,"endpoint: median survival time, dose: 83.0 mg/kg/injection, schedule: Q01DX005 (ip), vehicle: water",100 % of control
same,T/C,"endpoint: median survival time, dose: 133.0 mg/kg/injection, schedule: Q04DX003 (ip), vehicle: water",115 % of control
same,T/C,"endpoint: median survival time, dose: 222.0 mg/kg/injection, schedule: Q04DX003 (ip), vehicle: water",89 % of control
O=C1C2C3CCC(O3)C2C(=O)N1N1C(=O)C2C3CCC(O3)C2C1=O (centres undefined),T/C,"endpoint: mean survival time, dose: 100.0 mg/kg/injection, schedule: Q01DX009 (ip), vehicle: carboxymethylcellulose (CMC)",102 % of control
same,T/C,"endpoint: mean survival time, dose: 100.0 mg/kg/injection, schedule: Q04DX003 (ip), vehicle: carboxymethylcellulose (CMC)",110 % of control
same,T/C,"endpoint: mean survival time, dose: 200.0 mg/kg/injection, schedule: Q01DX009 (ip), vehicle: carboxymethylcellulose (CMC)",97 % of control
same,T/C,"endpoint: mean survival time, dose: 200.0 mg/kg/injection, schedule: Q04DX003 (ip), vehicle: carboxymethylcellulose (CMC)",111 % of control
same,T/C,"endpoint: mean survival time, dose: 400.0 mg/kg/injection, schedule: Q01DX009 (ip), vehicle: carboxymethylcellulose (CMC)",87 % of control
same,T/C,"endpoint: mean survival time, dose: 400.0 mg/kg/injection, schedule: Q04DX003 (ip), vehicle: carboxymethylcellulose (CMC)",101 % of control
O=C(Nc1ccccc1-c1ccc([N+](=O)[O-])cc1)c1cccc2ccccc12,T/C,[6],87 % of control
same,T/C,[8],90 % of control
CC(=O)N1CC(=O)NC1=S,T/C,"endpoint: mean survival time, dose: 100.0 mg/kg/injection, schedule: Q01DX001 (ip), vehicle: Klucel (hydroxypropylcellulose) (HPC)",115 % of control
same,T/C,"endpoint: mean survival time, dose: 200.0 mg/kg/injection, schedule: Q01DX001 (ip), vehicle: Klucel (hydroxypropylcellulose) (HPC)",107 % of control
same,T/C,"endpoint: mean survival time, dose: 400.0 mg/kg/injection, schedule: Q01DX001 (ip), vehicle: Klucel (hydroxypropylcellulose) (HPC)",95 % of control
COC(=O)c1ccccc1NC(OC)c1cccc([N+](=O)[O-])c1 (centres undefined),T/C,"endpoint: mean survival time, dose: 100.0 mg/kg/injection, schedule: Q01DX001 (ip), vehicle: saline with Tween-80",90 % of control
same,T/C,"endpoint: mean survival time, dose: 100.0 mg/kg/injection, schedule: Q04DX002 (ip), vehicle: saline with Tween-80",93 % of control and 89 % of control
same,T/C,[3],92 % of control
same,T/C,"endpoint: mean survival time, dose: 200.0 mg/kg/injection, schedule: Q01DX001 (ip), vehicle: saline with Tween-80",92 % of control
same,T/C,"endpoint: mean survival time, dose: 200.0 mg/kg/injection, schedule: Q04DX002 (ip), vehicle: saline with Tween-80",86 % of control and 90 % of control
same,T/C,[6],92 % of control
same,T/C,"endpoint: mean survival time, dose: 400.0 mg/kg/injection, schedule: Q01DX001 (ip), vehicle: saline with Tween-80",87 % of control
same,T/C,"endpoint: mean survival time, dose: 400.0 mg/kg/injection, schedule: Q04DX002 (ip), vehicle: saline with Tween-80",87 % of control
same,T/C,[8],89 % of control
CSc1ncnc2c1ncn2C1OC(CO)C2OC(C)(C)OC21 (centres undefined),T/C,"endpoint: mean survival time, dose: 100.0 mg/kg/injection, schedule: Q01DX005 (ip), vehicle: saline",112 % of control
same,T/C,"endpoint: mean survival time, dose: 200.0 mg/kg/injection, schedule: Q01DX005 (ip), vehicle: saline",122 % of control
Oc1ccc(Cl)cc1N=Cc1ccccc1,T/C,[1],100 % of control
same,T/C,[4],105 % of control
same,T/C,[7],107 % of control
O=c1c(O)c(-c2ccc(O)c(O)c2)oc2cc(O)cc(O)c12,T/C,"endpoint: mean survival time, dose: 25.0 mg/kg/injection, schedule: Q01DX009 (ip), vehicle: saline",115 % of control
same,T/C,"endpoint: mean survival time, dose: 50.0 mg/kg/injection, schedule: Q01DX009 (ip), vehicle: saline",105 % of control
same,T/C,[10],103 % of control
same,T/C,[11],104 % of control and 120 % of control
C=CCCCCCCCCC(=O)N(C)OC,T/C,"endpoint: mean survival time, dose: 25.0 mg/kg/injection, schedule: Q01DX009 (ip), vehicle: saline with Tween-80",97 % of control
same,T/C,"endpoint: mean survival time, dose: 50.0 mg/kg/injection, schedule: Q01DX009 (ip), vehicle: saline with Tween-80",105 % of control
same,T/C,[2],94 % of control and 92 % of control
CC1C(=O)CCC2(C)CCC(C)(C)CC12 (centres undefined),T/C,[2],98 % of control
same,T/C,"endpoint: mean survival time, dose: 100.0 mg/kg/injection, schedule: Q04DX003 (ip), vehicle: saline",105 % of control
same,T/C,[5],95 % of control
same,T/C,"endpoint: mean survival time, dose: 200.0 mg/kg/injection, schedule: Q04DX003 (ip), vehicle: saline",97 % of control
same,T/C,"endpoint: mean survival time, dose: 400.0 mg/kg/injection, schedule: Q01DX009 (ip), vehicle: saline with Tween-80",101 % of control
same,T/C,[9],103 % of control
